According to US11008304B2, “Tetrazole containing apoptosis signal-regulating kinase 1 inhibitors and methods of use thereof” (ENANTA PHARMACEUTICALS, INC., priority 2018, dated 2021):

biological target: ASK1 kinase (Homo sapiens (Human), UniProt Q99683); test: HTRF KinEASE assay of ASK1 kinase activity inhibition; format: biochemical; conditions: 5 nM ASK1, 1 uM STK3 peptide substrate, 100 uM ATP, TR-FRET readout
Protocol: The ability (IC50) of compounds to inhibit ASK1 kinase activity was determined by HTRF® KinEASE™ Assay System. ASK1 was purchased from Thermofisher (Catalogue #PV4011), ATP was purchased from Sigma (Catalogue #A7699), HTRF® KinEASE™ Assay System was obtained from Cisbio (Bedford, Mass.). ½ Area plate was purchased from Perkin Elmer (Catalogue ##6005560). HTRF® KinEASE™-STK is a generic method for measuring serine/threonine kinase activities using a time-resolved fluorescence resonance energy transfer (TR-FRET) immunoassay. The IC50 value for each compound was determined in the presence of compound (various concentration from 0 to 10 μM) and a fixed amount of ATP and peptide substrates. The test compound, 1 uM STK3 peptide substrate, and 5 nM of ASK1 kinase are incubated with kinase reaction buffer containing 50 mM HEPES pH 7.5, 0.01% BRIJ-35, 10 mM MgCl2, and 1 mM EGTA for 30 minutes. 100 uM ATP is added to start kinase reaction and incubated for 3 hours. The STK3-antibody labeled with Eu^3+-Cryptate and 125 nM streptavidin-XL665 are mixed in a single addition with stop reagents provided by the Cisbio kit used to stop the kinase reaction. Fluorescence is detected using an Envision Multilabeled 2014 reader from PerkinElmer. The Fluorescence is measured at 615 nm (Cryptate) and 665 nm (XL665) and a ratio of 665 nm/615 nm is calculated for each well. The resulting TR-FRET is proportional to the phosphorylation level. Staurosporine was used as the positive control. IC50 was determined by XLfit 5.3. By using above method, the inhibition of ASK1 was tested for the compound of formula (I). IC50 ranges are as follows: A<1 nM; 1 nM<B<10 nM; 10 nM<C<100 nM; 100 nM<D<1 μM; E>1 μM.

Chain of ASK1 kinase (Q99683 whole entry): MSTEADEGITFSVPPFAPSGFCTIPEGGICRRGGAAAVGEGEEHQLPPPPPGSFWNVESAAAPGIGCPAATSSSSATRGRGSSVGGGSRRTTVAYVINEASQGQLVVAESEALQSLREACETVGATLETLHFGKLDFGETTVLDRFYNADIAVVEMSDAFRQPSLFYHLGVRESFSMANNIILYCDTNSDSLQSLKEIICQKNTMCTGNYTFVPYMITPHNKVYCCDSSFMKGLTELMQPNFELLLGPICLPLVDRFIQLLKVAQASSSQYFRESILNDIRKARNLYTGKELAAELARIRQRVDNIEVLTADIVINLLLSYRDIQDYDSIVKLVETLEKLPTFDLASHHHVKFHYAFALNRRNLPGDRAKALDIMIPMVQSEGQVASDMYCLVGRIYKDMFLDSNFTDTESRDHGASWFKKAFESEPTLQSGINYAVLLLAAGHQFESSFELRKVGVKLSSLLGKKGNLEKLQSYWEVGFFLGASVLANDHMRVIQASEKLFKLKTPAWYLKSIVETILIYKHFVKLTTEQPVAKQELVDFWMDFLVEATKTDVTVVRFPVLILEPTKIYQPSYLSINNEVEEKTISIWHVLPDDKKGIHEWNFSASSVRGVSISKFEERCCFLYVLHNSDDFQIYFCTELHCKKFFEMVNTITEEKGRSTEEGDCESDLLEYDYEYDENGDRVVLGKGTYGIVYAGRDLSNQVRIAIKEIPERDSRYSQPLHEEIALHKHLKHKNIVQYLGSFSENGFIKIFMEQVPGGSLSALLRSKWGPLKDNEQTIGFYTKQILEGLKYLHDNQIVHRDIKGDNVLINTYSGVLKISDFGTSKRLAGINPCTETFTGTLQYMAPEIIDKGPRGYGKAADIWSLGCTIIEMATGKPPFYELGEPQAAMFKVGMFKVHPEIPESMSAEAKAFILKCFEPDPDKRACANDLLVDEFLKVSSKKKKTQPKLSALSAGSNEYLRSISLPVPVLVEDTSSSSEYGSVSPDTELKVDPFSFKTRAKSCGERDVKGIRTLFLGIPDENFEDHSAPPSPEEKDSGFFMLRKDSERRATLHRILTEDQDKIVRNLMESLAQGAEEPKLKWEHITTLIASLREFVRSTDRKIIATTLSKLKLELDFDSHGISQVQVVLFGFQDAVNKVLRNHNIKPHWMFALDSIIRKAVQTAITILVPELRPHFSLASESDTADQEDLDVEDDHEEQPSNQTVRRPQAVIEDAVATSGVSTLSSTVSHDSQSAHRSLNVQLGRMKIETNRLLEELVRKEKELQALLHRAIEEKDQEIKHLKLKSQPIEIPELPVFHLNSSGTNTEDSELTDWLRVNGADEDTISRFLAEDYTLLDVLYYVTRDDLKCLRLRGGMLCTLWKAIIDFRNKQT

SMILES | IC50 [µM]
Cc1cc(F)c(C(=O)Nc2cccc(-c3nnnn3C(C)C)n2)cc1-c1ccc(C2CC2)s1 [Example 69] | 0.01 to 0.1
Cc1cc(F)c(C(=O)Nc2cccc(-c3nnnn3C(C)C)n2)cc1-c1cc(C2CC2)on1 [Example 71] | 0.01 to 0.1
COc1cc(C)c(-c2ccn(C(C)C)n2)cc1C(=O)Nc1cccc(-n2nnnc2C(C)C)n1 [Example 79] | 0.01 to 0.1
Cc1cc(F)c(C(=O)Nc2cccc(-c3nnnn3[C@H]3CCOC3)n2)cc1-c1cnn(C2CC2)c1 [Example 81] | 0.001 to 0.01
Cc1cc(F)c(C(=O)Nc2cccc(-c3nnnn3[C@@H]3CCOC3)n2)cc1-c1cnn(C2CC2)c1 [Example 82] | 0.001 to 0.01
Cc1cc(F)c(C(=O)Nc2cccc(-c3nnnn3[C@H]3CCC[C@@H]3O)n2)cc1-c1cnn(C2CC2)c1 [Example 83] | 0.001 to 0.01
Cc1cc(F)c(C(=O)Nc2cccc(-c3nnnn3[C@@H]3CCC[C@@H]3O)n2)cc1-c1cnn(C2CC2)c1 [Example 84] | 0.001 to 0.01

Next, values leading:

IC50 [µM] | SMILES
0.001 to 0.01 | Cc1cc(F)c(C(=O)Nc2cccc(-c3nnnn3[C@H](C)CO)n2)cc1-c1ccc(C2CC2)s1 [Example 70]
0.001 to 0.01 | COc1cc(C)c(-c2cnn(C)c2)cc1C(=O)Nc1cccc(-c2nnnn2C(C)C)n1 [Example 73]
0.001 to 0.01 | COc1cc(C)c(-c2cnn(C)c2)cc1C(=O)Nc1cccc(-n2nnnc2C(C)C)n1 [Example 74]
< 0.001 | COc1cc(C)c(-c2cnn(C3CC3)c2)cc1C(=O)Nc1cccc(-c2nnnn2C(C)C)n1 [Example 75]
< 0.001 | COc1cc(C)c(-c2cnn(C3CC3)c2)cc1C(=O)Nc1cccc(-n2nnnc2C(C)C)n1 [Example 76]
< 0.001 | COc1cc(C)c(-c2cnn(C3CC3)c2)cc1C(=O)Nc1cccc(-c2nnnn2[C@H](C)CO)n1 [Example 77, 5-(1-cyclopropyl-1H-pyrazol-4-yl)-N-(6-[1-[(2R)-1-hydroxypropan-2-yl]-1H-1,2,3,4-tetrazol-5-yl]pyridin-2-yl)-2-methoxy-4-methylbenzamide]
0.001 to 0.01 | COc1cc(C)c(-c2ccn(C(C)C)n2)cc1C(=O)Nc1cccc(-c2nnnn2C(C)C)n1 [Example 78]
< 0.001 | COc1cc(C)c(-c2ccn(C(C)C)n2)cc1C(=O)Nc1cccc(-c2nnnn2[C@H](C)CO)n1 [Example 80]
